Assays:
[1] = target: Fatty acid synthase (Rattus norvegicus) (UniProt P12785); assay: Inhibition of Sprague-Dawley rat liver fatty acid synthase at 60 umol
[2] = Cytotoxicity against HLF by MTT assay; details: human, HLF cells; read-out: TC50 (the source's name)
Fatty acid synthase [3] = target: Fatty acid synthase (Rattus norvegicus, UniProt P12785); assay: Inhibition of Sprague-Dawley rat liver fatty acid synthase
fatty acid synthase [4] = assay: Therapeutic index, ratio of TC50 for HLF to IC50 for Sprague-Dawley rat liver fatty acid synthase; details: human (HLF cells), HLF cells versus rat liver fatty acid synthase

Fatty acid synthase (Rattus norvegicus), sequence (P12785 whole entry): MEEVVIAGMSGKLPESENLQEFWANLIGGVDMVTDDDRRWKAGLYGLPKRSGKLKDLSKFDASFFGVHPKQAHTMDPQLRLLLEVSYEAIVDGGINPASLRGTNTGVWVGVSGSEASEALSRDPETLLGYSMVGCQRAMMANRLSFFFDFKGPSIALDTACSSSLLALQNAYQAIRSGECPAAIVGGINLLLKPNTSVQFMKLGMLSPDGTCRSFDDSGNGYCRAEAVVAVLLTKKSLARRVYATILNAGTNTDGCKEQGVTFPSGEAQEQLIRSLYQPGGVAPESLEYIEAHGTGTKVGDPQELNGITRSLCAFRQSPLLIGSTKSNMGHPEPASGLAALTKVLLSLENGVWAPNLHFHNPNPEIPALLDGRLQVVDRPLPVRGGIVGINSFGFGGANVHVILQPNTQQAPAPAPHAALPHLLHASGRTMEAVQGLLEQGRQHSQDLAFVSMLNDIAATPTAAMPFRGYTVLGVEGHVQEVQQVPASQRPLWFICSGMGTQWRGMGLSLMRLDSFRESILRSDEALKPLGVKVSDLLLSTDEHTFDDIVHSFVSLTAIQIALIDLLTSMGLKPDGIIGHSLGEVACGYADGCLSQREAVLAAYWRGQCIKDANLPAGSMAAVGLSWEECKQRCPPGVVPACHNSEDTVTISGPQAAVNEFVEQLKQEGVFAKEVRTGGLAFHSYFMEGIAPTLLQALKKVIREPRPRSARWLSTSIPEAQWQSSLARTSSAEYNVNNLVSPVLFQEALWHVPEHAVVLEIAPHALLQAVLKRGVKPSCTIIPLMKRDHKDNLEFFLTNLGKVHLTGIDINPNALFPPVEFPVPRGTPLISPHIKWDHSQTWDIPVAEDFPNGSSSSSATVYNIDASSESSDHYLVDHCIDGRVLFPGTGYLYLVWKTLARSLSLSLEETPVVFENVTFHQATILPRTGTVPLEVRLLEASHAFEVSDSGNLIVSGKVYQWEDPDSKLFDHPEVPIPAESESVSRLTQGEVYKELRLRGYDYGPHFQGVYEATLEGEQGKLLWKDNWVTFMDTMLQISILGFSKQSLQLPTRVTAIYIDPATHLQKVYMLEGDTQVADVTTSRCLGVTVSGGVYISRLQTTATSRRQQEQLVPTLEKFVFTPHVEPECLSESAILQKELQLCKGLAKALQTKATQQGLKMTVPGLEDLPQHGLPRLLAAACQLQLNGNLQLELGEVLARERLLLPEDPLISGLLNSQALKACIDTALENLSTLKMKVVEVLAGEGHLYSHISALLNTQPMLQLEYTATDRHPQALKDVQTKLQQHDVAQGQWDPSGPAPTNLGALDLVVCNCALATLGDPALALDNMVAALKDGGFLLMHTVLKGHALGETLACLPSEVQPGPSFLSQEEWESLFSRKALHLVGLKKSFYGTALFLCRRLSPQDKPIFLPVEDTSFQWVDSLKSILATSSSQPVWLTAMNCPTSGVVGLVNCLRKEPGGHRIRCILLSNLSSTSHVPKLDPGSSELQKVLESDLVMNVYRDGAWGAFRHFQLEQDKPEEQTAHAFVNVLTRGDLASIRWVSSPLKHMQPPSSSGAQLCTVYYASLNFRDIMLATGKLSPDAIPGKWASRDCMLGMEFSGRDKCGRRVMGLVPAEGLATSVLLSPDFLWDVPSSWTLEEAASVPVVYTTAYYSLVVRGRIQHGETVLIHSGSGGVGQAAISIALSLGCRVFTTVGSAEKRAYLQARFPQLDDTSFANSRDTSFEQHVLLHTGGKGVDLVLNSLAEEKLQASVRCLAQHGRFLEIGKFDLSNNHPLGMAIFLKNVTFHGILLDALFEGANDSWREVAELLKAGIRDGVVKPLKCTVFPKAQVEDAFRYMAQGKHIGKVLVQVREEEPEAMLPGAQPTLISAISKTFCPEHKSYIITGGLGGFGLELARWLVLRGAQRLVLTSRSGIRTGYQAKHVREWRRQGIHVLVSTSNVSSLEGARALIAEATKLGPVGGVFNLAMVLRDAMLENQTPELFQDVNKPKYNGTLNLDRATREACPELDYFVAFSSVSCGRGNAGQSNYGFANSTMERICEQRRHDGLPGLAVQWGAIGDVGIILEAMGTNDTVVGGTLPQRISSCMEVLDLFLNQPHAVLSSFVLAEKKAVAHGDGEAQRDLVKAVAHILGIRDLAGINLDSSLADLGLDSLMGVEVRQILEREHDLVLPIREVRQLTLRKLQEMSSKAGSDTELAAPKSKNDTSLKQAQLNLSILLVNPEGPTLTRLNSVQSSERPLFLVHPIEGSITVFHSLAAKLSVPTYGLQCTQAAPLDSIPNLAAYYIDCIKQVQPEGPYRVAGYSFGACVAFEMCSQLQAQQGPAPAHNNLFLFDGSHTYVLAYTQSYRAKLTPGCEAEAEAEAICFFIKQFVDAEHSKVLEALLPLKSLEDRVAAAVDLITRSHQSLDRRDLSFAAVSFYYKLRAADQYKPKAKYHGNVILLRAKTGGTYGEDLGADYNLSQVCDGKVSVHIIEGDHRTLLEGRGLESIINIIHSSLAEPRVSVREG
Fatty acid synthase, sequence (P12785 whole entry): as above

Row | inhibition [1] | IC50 (Fatty acid synthase [3]) | SMILES | CC50 [2] | selectivity ratio (fatty acid synthase [4])
1 | 77.5% | 8.29 µM | CCCCCCCCCC1SC(=O)c2ccccc2[C@@H]1C(=O)O (stereo not given in full) | 88.6 µM | 10.7
2 |  | 15.5 µM | C=C1C(=O)O[C@H](CCCCCCCC)[C@H]1C(=O)O (relative stereo) | 87.1 µM | 5.61
3 | 90.2% | 4.11 µM | CCCCCCCCCC[C@H]1SC(=O)c2ccccc2[C@@H]1C(=O)O (relative stereo) | 12 µM | 2.92
4 | 95.7% | 3.62 µM | CCCCCCCCCCC[C@H]1SC(=O)c2ccccc2[C@@H]1C(=O)O (relative stereo) | 9.67 µM | 2.67
5 | 40.4% | 36.7 µM | CCCCCC[C@H]1SC(=O)c2ccccc2[C@@H]1C(=O)O (relative stereo) | > 200 µM | 
6 | 43.1% | 26.9 µM | CCCCCCC[C@H]1SC(=O)c2ccccc2[C@@H]1C(=O)O (relative stereo) | > 200 µM | 
7 | 50.9% | 12.3 µM | CCCCCCCC[C@H]1SC(=O)c2ccccc2[C@@H]1C(=O)O (relative stereo) | 84.2 µM | 6.83
